“Also recorded” adds a separate entry of the source.
Experiments:
recombinant ADAM10 = biological target: T1, recombinant ADAM10 (Homo sapiens, UniProt O14672); assay: Cleavage of fluorogenic CD62L peptide by recombinant ADAM10; format: biochemical; details: 2 μM compound
T1 construct: purchased R&D systems, Inc
T1 sequence (O14672 214-748): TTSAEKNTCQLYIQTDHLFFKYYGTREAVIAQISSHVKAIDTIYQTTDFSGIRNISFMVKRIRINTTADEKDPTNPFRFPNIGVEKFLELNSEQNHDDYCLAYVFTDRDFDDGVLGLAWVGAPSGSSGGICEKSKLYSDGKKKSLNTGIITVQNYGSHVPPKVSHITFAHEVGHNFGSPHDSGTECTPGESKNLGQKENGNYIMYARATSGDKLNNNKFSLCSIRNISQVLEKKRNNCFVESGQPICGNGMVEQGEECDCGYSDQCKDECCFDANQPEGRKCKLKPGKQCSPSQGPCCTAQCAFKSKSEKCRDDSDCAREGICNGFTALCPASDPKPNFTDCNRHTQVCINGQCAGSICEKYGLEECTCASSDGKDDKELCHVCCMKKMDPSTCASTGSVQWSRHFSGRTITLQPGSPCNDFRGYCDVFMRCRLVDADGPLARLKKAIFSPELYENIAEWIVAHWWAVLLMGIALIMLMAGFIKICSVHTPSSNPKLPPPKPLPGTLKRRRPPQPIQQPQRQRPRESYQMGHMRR
Excerpt: A fluorescence based enzymatic assay was used to measure the cleavage of fluorogenic TNF-α and L-selectin (CD62L) peptides by either recombinant ADAMs or PBMC from healthy donors. The fluorogenic substrate, synthesized by Biomatik^3, was a Dabcyl (4-(4-dimethylaminophenylazo)benzoyl)- and Edans (5-[(2-aminoethyl)amino]naphthalene-1-sulfonic acid)- conjugated 12 amino acid peptide: Dabcyl-[…]-Edans that corresponds to the extracellular membrane proximal region of CD62L. The fluorescence of the Edans group is quenched by the Dabcyl group in the intact substrate and the cleavage of the CD62L substrate peptide results in a fluorescence emission at 490 nm. The cleavage of fluorogenic TNF-α peptide (ES003, R &D systems, Inc) was detected at emission of 405 nm. The cleavage was measured in a kinetic assay every 3 min for 4 h in black 96-well plates using a Synergy_h1 fluorescent plate reader (BioTek) with 340 nm excitation and 490 nm emission wavelengths. For cleavage using recombinant ADAMs, each enzymatic reaction contained 50–200 ng of recombinant ADAM17 or 10 (R&D systems, Inc) mixed with 5–10 μM fluorogenic TNFα peptide ES003 (R&D systems, Inc) or CD62L peptide with or without indicated inhibitors in 100 μL assay buffer of 25 mM Tris at pH 9.0, 2.5 μM ZnCl2, and 0.005% Brij-35 (w/v). For cell-based cleavage of the fluorescent CD62L-peptide substrate, 300,000 PBMC at 2×10^6/ml density were mixed with 10 μM fluorescent CD62L-peptide and various inhibitors in a black 96-well plate in 150 μL culture media (RPMI 1640, 10% FBS, 1% penicillin streptomycin). PBMC were stimulated with anti-CD3 antibody for 2–4 days as described above.
Supplemental Figure 3. Inhibition of ADAM10 enzymatic activity by 14mb. A) chemical structure of 3-Cl-phenylpyrrolidine tartrate diamide analogs 14m and 15. B)Inhibition of recombinant ADAM10 cleavage of a fluorogenic CD62L peptide substrate in the presence of titrating concentrations of 14mb. The concentration-dependent enzymatic activities are fitted with non-linear regression of normalized inhibition response model. C). Inhibition of ADAM10 enzymatic cleavage of fluorogenic CD62L peptide by various […]

HIV-1LAI = HIV-1LAI infection of CD8-depleted PBMC; format: cell-based; details: 100 μM
Excerpt: The use of healthy human peripheral blood mononuclear cells (PBMC) is approved by the Department of Transfusion Medicine at the Clinical Center of National Institutes of Health. The use of PBMC from HIV-1 infected individuals for the study was approved under protocol #02-I-0202 by the Institutional Review Board (IRB) of National Institutes of Health with written informed consent from all donors. Peripheral blood mononuclear cells (PBMCs) from anonymous healthy donors were isolated by Ficoll-Paque gradient, and cultured in RPMI 1640 supplemented with 10% FBS, 1%Penicillin/streptomycin, 1% HEPES buffer and 20 U/mL IL-2 (culture media); and stimulated with 0.2 μg/mL anti-CD3 antibody (okt3) for 2 days. CD8^+ T cells were depleted prior to infection using the Stemcell CD8 positive selection kit according to manufacturer’s instructions. […] The infections were proceeded with or without inhibitors for 6 days or otherwise specified number of days and then analyzed by FACS staining using fluorescent labeled CD4-BV510, CD62L-APC and CD3-PEC7 antibodies (BD Biosciences). […] Replication competent HIV-1 viruses were obtained from the NIH AIDS Reagent Program^4, and expanded by infecting activated CD8-depleted PBMCs, and TCID50 was determined by p24 ELISA.

HIV-1BAL = HIV-1BAL infection of CD8-depleted PBMC, FACS (intracellular p24, CD4, CD62L); format: cell-based; details: for accumulation of infected CD4−/CD62L− T cells (loss of CD62L): HIV-1BAL infected cells; for effect on HIV-1BAL infection (intracellular p24): day 7 post infection, compounds at 100 μM, GI254023X at 250 μM
Excerpt: The use of healthy human peripheral blood mononuclear cells (PBMC) is approved by the Department of Transfusion Medicine at the Clinical Center of National Institutes of Health. The use of PBMC from HIV-1 infected individuals for the study was approved under protocol #02-I-0202 by the Institutional Review Board (IRB) of National Institutes of Health with written informed consent from all donors. Peripheral blood mononuclear cells (PBMCs) from anonymous healthy donors were isolated by Ficoll-Paque gradient, and cultured in RPMI 1640 supplemented with 10% FBS, 1%Penicillin/streptomycin, 1% HEPES buffer and 20 U/mL IL-2 (culture media); and stimulated with 0.2 μg/mL anti-CD3 antibody (okt3) for 2 days. CD8^+ T cells were depleted prior to infection using the Stemcell CD8 positive selection kit according to manufacturer’s instructions. CD8-depleted PBMCs were plated at 2×10^6 cells/ml in 48-well plates in 1 mL culture media with various inhibitors for 60 min prior to the addition of ~80 TCID50 HIV-1BAL or HIV-1LAI. Inhibitors were replenished during media change every 3 days. The infections were proceeded with or without inhibitors for 6 days or otherwise specified number of days and then analyzed by FACS staining using fluorescent labeled CD4-BV510, CD62L-APC and CD3-PEC7 antibodies (BD Biosciences). Cells were then washed and permeabilized with CytoFix/CytoPerm (BD Biosciences) solution before intracellular staining for HIV p24 antigen using FITC conjugated anti-p24 antibody clone KC57 (Beckman Coulter, catalog 6604665). All assays were performed with cell viabilities >80%. Replication competent HIV-1 viruses were obtained from the NIH AIDS Reagent Program^4, and expanded by infecting activated CD8-depleted PBMCs, and TCID50 was determined by p24 ELISA.

HIV-1 = assay: Ex vivo HIV-1 release from CD4 T cells of HIV-1 infected individuals; format: cell-based; details: 50 μM; for effect on viral release (virion-associated HIV RNA): CD4 T cells from six HIV-1 infected individuals, day 2 and 4
Method: PBMCs were collected from the study subjects in accordance with a clinical protocol approved by the Institutional Review Board of the National Institute of Allergy and Infectious Diseases, National Institutes of Health under protocol #02-I-0202. CD4^+ T cells were isolated from the PBMCs using a human CD4 T cell separation system (StemCell Technologies, Catalog 19052) and were cultured with medium alone or with plate-bound anti-CD3 and soluble anti-CD28 antibody in the absence or presence of 50 μM of indicated compounds for 48 h. The copy number of cell-free viron-associated HIV RNA in the culture supernatants was quantified using the Cobas Ampliprep/Cobas Taqman HIV-1 Test, Version 2.0 (Roche Diagnostics) with droplet digital PCR (ddPCR, BIO-RAD) on day 2 and 4 of stimulation.

Row | Structure (SMILES) | inhibition of ADAM10 cleavage of CD62L substrate peptide (recombinant ADAM10) | effect on X4 tropic HIV-1LAI infection (HIV-1LAI) | inhibition when added on day 3 and 5 after initiation of infection (HIV-1BAL; 100μM, added day 0, 3, 5 post infection) | accumulation of infected CD4−/CD62L− T cells (loss of CD62L) (HIV-1BAL) | effect on HIV-1BAL infection (intracellular p24) (HIV-1BAL) | effect on viral release (virion-associated HIV RNA) (HIV-1) | reductions in released virion-associated RNA (HIV-1; day 2 and 4 post stimulation)
1 | CNC(=O)[C@H](Cc1ccccc1)NC(=O)[C@H](CC(C)C)[C@H](CSc1cccs1)C(=O)NO [BB-94, Batimastat] | indistinguishable with that of fluorogenic peptide CD62L-only without the enzyme; also recorded: completely suppressed | inhibited the X4 tropic HIV-1LAI infections | progressive reduction in its inhibition | reduced the accumulation | inhibited HIV-1BAL infections | inhibited the viral release from all individuals | 2–50 fold
2 | CNC(=O)[C@@H](NC(=O)[C@H](CCCc1ccccc1)[C@H](C)N(O)C=O)C(C)(C)C [GI254023X] | completely suppressed |  |  | did not inhibit the accumulation | fail to significantly suppress the viral infections |  | 
3 | CC1(C)SCCN(S(=O)(=O)c2ccc(Oc3ccncc3)cc2)[C@H]1C(=O)NO [prinomastat] | completely suppressed | inhibited the X4 tropic HIV-1LAI infections |  | reduced the accumulation | inhibited HIV-1BAL infections | inhibited viral release in a portion of the samples | 
